In publication PMC5584945, “Evaluation of robenidine analog NCL195 as a novel broad-spectrum antibacterial agent” (PLoS ONE, 2017):

What was measured:
[1] = system: Neisseria meningitidis; assay: Activity against Neisseria meningitidis; format: cell-based
Method: (§1) MICs for NCL812 and its analogs (serial two-fold dilutions commencing at 128 μg/ml) were determined (in duplicate) in round bottom 96-well microtitre trays (Sarstedt 82.1582.001), using the broth micro-dilution method recommended by the Clinical and Laboratory Standards Institute (CLSI). […] MIC50, MIC90 and MIC range for NCL812, NCL195 and NCL219 were calculated against each S. pneumoniae, S. aureus or VRE isolate. To assess the potential activity of NCL195 against Gram-negative bacteria, MICs against Acinetobacter spp, E. coli, K. pneumoniae, P. aeruginosa, Proteus spp and Neisseria meningitidis were performed in the presence or absence of 0.08 mM-20 mM EDTA in a standard checkerboard assay.

[2] = system: A. calcoaceticus; assay: MIC, broth micro-dilution; format: cell-based; conditions: 8 A. calcoaceticus isolates; absence of EDTA
Method: as §1

[3] = system: A. anitratus; assay: MIC, broth micro-dilution; format: cell-based; conditions: Acinetobacter calcoaceticus; one A. anitratus isolate; absence of EDTA
Method: as §1

[4] = system: A. baumannii, E. coli, K. pneumoniae and P. aeruginosa; assay: MIC with sub-inhibitory EDTA or polymyxin B, Gram-negative panel; format: cell-based
Method: as §1

[5] = Pharmacokinetics after IP administration; format: in vivo, mouse; conditions: mice, IP 43 mg/kg
Method: Mice had access to food and water ad libitum throughout the pre- and post-dose sampling period. The Animal Ethics Committee of the Monash Institute of Pharmaceutical Sciences reviewed and approved all animal PK experiments (approval number MIPS.2013.33). The PK studies were conducted in compliance with the Australian Code of Practice for the Care and Use of Animals for Scientific Purposes (7th Edition 2004). […] For both the IV and IP administration, a maximum of two samples were obtained from each mouse, with samples being taken either via submandibular bleed (approximately 120 μl; conscious sampling) or terminal cardiac puncture (0.6 ml; under inhaled Isoflurane anesthesia). No urine samples were collected as mice were housed in bedded cages during the study. […] Mice were humanely sacrificed by cervical dislocation while under anaesthesia (using gaseous isoflurane) at the end of experiments. Blood was collected directly into polypropylene Eppendorf tubes containing heparin as anti-coagulant, and stabilization cocktail (containing Complete (a protease inhibitor cocktail with EDTA) and potassium fluoride) to minimize the potential for ex vivo degradation of the test compounds in blood/plasma samples. Once collected, blood samples were centrifuged immediately, supernatant plasma was removed, and stored at either -80°C (for the IV exposure) or at -20°C (for the IP exposure) until analysis by liquid chromatography-mass spectrometry (LC-MS). Following protein precipitation with acetonitrile, thawed plasma samples were analyzed by LC-MS (Waters Micromass Quattro Premier coupled to a Waters Acquity UPLC) using positive electrospray ionization operating in MRM mode.

[6] = system: mice; conditions: cited from earlier work
[7] = system: S. pneumoniae D39; assay: TEM morphometric analysis of cell membrane; format: cell-based, Streptococcus pneumoniae; conditions: 16 μg/ml, 6 h exposure
Method: Morphological appearance and morphometric analysis of the cell membrane of S. pneumoniae D39 after exposure to either 1 μg/ml, 4 μg/ml or 16 μg/ml of NCL812 was determined using TEM, as described in S1 File (Supplementary Methods). For S. aureus ATCC 29213, macromolecular (DNA, RNA, protein, cell wall, and lipid) synthesis inhibition studies were performed using concentrations of NCL812 that were equivalent to 0, 0.25, 0.5, 1, 2, 4 or 8-fold the MIC value (4 μg/ml), as detailed in S1 File (Supplementary Methods).
Effect of NCL812 on S. pneumoniae D39 cell membrane ultra-structure. Morphological appearance and morphometric analysis of the cell membrane of S. pneumoniae D39 after exposure to either 1 µg/ml, 4 µg/ml or 16 µg/ml of NCL812 was determined using TEM. […] Cultures were then exposed to either 1 µg/ml, 4 µg/ml or 16 µg/ml of NCL812 and harvested at 6 or 12 h by centrifugation at […] for 20 min and washed twice in 50 ml PBS. Critical time points for TEM work were determined by analyzing trends in the growth curves produced from the kill kinetics studies. Samples were resuspended in PBS containing 20% glycerol and stored at -80°C until required. […]
Samples were fixed using modified protocols defined by a previous study examining cell wall ultrastructure of S. pneumoniae. […] Images were obtained at 130000× magnification and analyzed using analySIS (Olympus Soft Imaging Systems).

Row | Structure (SMILES) | Activity against Neisseria meningitidis [1] | MIC range [2] [µg/mL] | MIC [3] [µg/mL] | MIC ([4]; in the presence of sub-inhibitory concentrations of EDTA) [µg/mL] | MIC ([4]; in the presence of sub-inhibitory concentrations of polymyxin B) [µg/mL] | Adverse reactions after IP administration [5] | Plasma concentration ([5]; between 7.5 and 24 h post-dose) [ng/mL] | Plasma concentration ([5]; initial 7.5 h post-dose) [ng/mL] | oral LD50 [6] [mg/kg] | Periplasmic space width ([7]; untreated 3.91 ± 0.14 nm) [nm] | Cell membrane thickness ([7]; untreated 4.35 ± 0.24 nm) [nm]
1 | Cc1ccc(/C=N/Nc2cc(N/N=C/c3ccc(C)cc3)nc(N)n2)cc1 [NCL195, 4,6-bis(2-((E)-4-methylbenzylidene)hydrazinyl)pyrimidin-2-amine] | bactericidal | 4 to 32 | 4 | 0.25 to 8 | 0.25 to 1 | No adverse reactions or compound-related side effects were observed | 200 to 500 | 3000 to 4000 | – | – | –
2 | Cl.N=C(NN=Cc1ccc(Cl)cc1)NN=Cc1ccc(Cl)cc1 [NCL812, 2,2'-bis[(4-chlorophenyl)methylene] carbonimidic dihydrazide hydrochloride] | – | – | – | – | – | – | – | – | 150 | 4.54 ±0.096 | 6.43 ± 0.29
